The source of these data is patent publication US10466253B2, “Molecular flux rates through critical pathways measured by stable isotope labeling in vivo, as biomarkers of drug action and disease activity” (The Regents of the University of California, priority 2004, dated 2019).

Entries after “also recorded” stand apart in the source; their conditions may differ. Read-outs that look alike come from different tables or passages of the source.

For data set [1], the system named is hippocampal neuroprogenitor cells. As to the kind of experiment: Hippocampal neuroprogenitor cell proliferation (2H2O labeling of DNA, GC/MS). The format is in vivo, male 129SvEv mice. The protocol:
FIG. 7 depicts the effects of chronic imipramine treatment on hippocampal neuroprogenitor cell proliferation in male 129SvEv mice. […] Mice received 3 weeks of treatment with imipramine (20 mg/kg/day) in drinking water and were labeled with 10% ^2H2O during the last 3 days of treatment. Data represent mean±SD, n=4 per group.
FIG. 8 depicts the effects of chronic fluoxetine treatment on hippocampal neuroprogenitor cell proliferation in male 129SvEv mice. […] Mice received 2 weeks of treatment with fluoxetine (10 mg/kg/day) in drinking water and were labeled with 10% ^2H2O during the last week of treatment.
DNA is then isolated from the tissue or cell of interest using a Qiagen kit (Qiagen, Valencia, Calif.), following the manufacturer's protocol. Isolated DNA, eluted in water, is adjusted to pH 9-10 and hydrolyzed enzymatically; deoxyribose is released selectively from purine (dA/dG) deoxynucleotides and converted to the pentane tetraacetate derivative. Alternatively, a pentafluorobenzyl derivative is prepared by reaction with excess pentafluorobenzyl hydroxylamine under acidic conditions, followed by acetylation with acetic anhydride. Either type of derivative is subsequently extracted with an organic solvent, dried with sodium sulfate, and analyzed by GC/MS as described, supra. […]

The next data set deals with bone marrow. As to the kind of experiment: Bone marrow proliferation in tumor-bearing mice over 5 days of chemotherapy. It counts as in vivo, female balb/C mice. Conditions: Gem 125 mg/kg every other day, HU 500 mg/kg daily.
The test system of data set [2] is EMT7 mouse mammary carcinoma cells. As to the kind of experiment: In vivo tumor cell proliferation over 5 days of chemotherapy. Set-up: species or system female balb/C mice. To be noted: Gem 125 mg/kg every other day, HU 500 mg/kg daily.
The next data set deals with SW 1753 cells. As to the kind of experiment: DNA methylation in cultured tumor cells (2H3-methyl methionine labeling, GC-MS of methylcytosine). To be noted: for inhibition at 0.25 µM: read-out: inhibition of methylation (reduction). The format is cell-based.
Data set [3] has as its system bone marrow cells (total, lymphoid, myeloid, other). As to the kind of experiment: Bone marrow cell subset proliferation after hydroxyurea (myelosuppression).
The test system of a further data set is mature neurons. The experiment in a line: Proliferation of mature neurons (neurogenesis; flow cytometry isolated neurons). To be noted: imipramine-treated vs normal adult mice. It counts as in vivo. An excerpt:
FIG. 27 depicts the proliferation of mature neurons in normal and antidepressant (imipramine)-treated adult mice. Neurons were isolated by flow cytometry and analyzed as described in Example 2, infra.
Animals are sacrificed, brain is removed and the hippocampus is dissected out. […] Different durations of label administration can be used to differentiate between the kinetics of rapidly proliferating cells, such as the progenitor cell population, compared to the slower rate of label incorporation in neuronal cells. In order to assess neurogenesis directly, ^2H2O-labeled […] are sacrificed, the brain is removed, the hippocampus is dissected out and cut into 0.5 mm slices followed by digestion/dissociation with papain and trypsin. The isolated cells are stained for neuronal markers and sorted by flow cytometry. DNA is isolated and labeling is measured as described, supra.

Another data set deals with liver collagen synthesis. The experiment in a line: Liver collagen synthesis in CCl4-induced liver fibrosis. To be noted: CCl4-induced liver fibrosis.
[4] abbreviates: single dose 500 mg/kg i.p., 8% 2H2O for subsequent 24 hours, vs vehicle.

In the case of `CNCCC(Oc1ccc(C(F)(F)F)cc1)c1ccccc1` (stereo not shown) [fluoxetine], in data set [1] (fluoxetine 10 mg/kg/day in drinking water, 2 weeks, 10% 2H2O during last week, p<0.05 vs vehicle), the “hippocampal neuroprogenitor cell proliferation” value was “increases progenitor cell proliferation; also recorded: significant increase”.

As for `Nc1ccn([C@@H]2O[C@H](CO)[C@@H](O)C2(F)F)c(=O)n1` [Gem, gemcitabine], the bone marrow proliferation result with bone marrow is on record as “suppressed”. Also, the tumor cell proliferation result is on record as “suppressed” in data set [2] and “reduced” in data set [2] (listed as gemcitabine).

For `Nc1ncn([C@@H]2O[C@H](CO)[C@@H](O)[C@H]2O)c(=O)n1` [azacytidine, azacitidine], the inhibition at 0.25 µM with SW 1753 cells (250 nM, SW 1753 cells, DMEM 10% FBS with 2H3-methyl methionine) is below 10%. Moreover, in the data set on SW 1753 cells (24-hour labeling period, 125, 250, 500 nM), the “fraction of methylcytosine that is new” value is given as “suppressed”.

As to `NC(=O)NO` [hydroxyurea], the bone marrow proliferation result in the data set with bone marrow is given as “suppressed”. Also, the “bone marrow proliferation across subsets (TBM, lymphoid, myeloid, other)” value in data set [3] (in three cases (indicated by **)) is “suppressed bone marrow proliferation”. Besides, in data set [3] (setting [4]), the “proliferation of lymphoid bone marrow cells” value is given as “statistically significant suppressive effect”, the “proliferation of other bone marrow cells” value is “statistically significant suppressive effect” and the “proliferation of total bone marrow (TBM)” value was “statistically significant suppressive effect”. In addition, the tumor cell proliferation result in data set [2] is reported as “reduced”. Further, the tumor cell proliferation result in data set [2] (listed as HU) was “suppressed”.

Turning to `Nc1ncn([C@H]2C[C@H](O)[C@@H](CO)O2)c(=O)n1` [Decitabine, decitabine], the inhibition at 0.25 µM in the data set with SW 1753 cells worked out at 70%.

Take `CN(C)CCCN1c2ccccc2CCc2ccccc21` [imipramine]: in data set [1] (imipramine 20 mg/kg/day in drinking water, 3 weeks, 10% 2H2O during last 3 days, vs vehicle), the “hippocampal neuroprogenitor cell proliferation” value was “increases progenitor cell proliferation; also recorded: significant increase”. Further, the “rate of mature neuron formation” value in the data set with mature neurons is reported as “increased formation of mature neurons”; with mature neurons (listed as Imipramine), “increased the rate of mature neuron formation”.

B1: Interferon-gamma: anti-fibrotic agent (protein, UniProt P01579 24-161, looked up)
Interferon gamma: QDPYVKEAENLKKYFNAGHSDVADNGTLFLGILKNWKEESDRKIMQSQIVSFYFKLFKNFKDDQSIQKSVETIKEDMNVKFFNSNKKKRDDFEKLTNYSVTDLNVQRKAIHELIQVMAELSPAAKTGKRKRSQMLFRG
Consider B1, for which the entries for the “rate of liver collagen synthesis in CCl4-treated mice” value in the data set with liver collagen synthesis and with liver collagen synthesis (listed as interferon-gamma) were “reduce the rate of collagen synthesis” and “suppressed”, respectively.

By inhibition is commonly meant the drop in the measured response relative to a control, in per cent.
